The source of these data is patent publication US4570006A, “Amidine compound, process for producing same and anti-complement agent comprising same” (Torii & Co. Ltd., priority 1981, dated 1986).

The target of one test is Thrombin (Homo sapiens, UniProt P00734). The experiment in a line: biochemical. The following applies: TAME hydrolysis; read-out: ID50, thrombin.
For a further test, the target named is T1, Clr (Homo sapiens, UniProt P00736).
T1 sequence (P00736 464-705 limits assumed): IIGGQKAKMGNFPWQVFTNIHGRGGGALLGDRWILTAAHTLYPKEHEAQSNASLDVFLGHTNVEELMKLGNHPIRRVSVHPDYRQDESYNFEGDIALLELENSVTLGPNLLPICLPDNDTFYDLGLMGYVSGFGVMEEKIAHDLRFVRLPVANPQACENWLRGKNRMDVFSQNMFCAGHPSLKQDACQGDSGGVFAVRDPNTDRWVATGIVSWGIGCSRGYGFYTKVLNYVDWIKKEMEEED
T1 sequence (P00736 18-463 limits assumed): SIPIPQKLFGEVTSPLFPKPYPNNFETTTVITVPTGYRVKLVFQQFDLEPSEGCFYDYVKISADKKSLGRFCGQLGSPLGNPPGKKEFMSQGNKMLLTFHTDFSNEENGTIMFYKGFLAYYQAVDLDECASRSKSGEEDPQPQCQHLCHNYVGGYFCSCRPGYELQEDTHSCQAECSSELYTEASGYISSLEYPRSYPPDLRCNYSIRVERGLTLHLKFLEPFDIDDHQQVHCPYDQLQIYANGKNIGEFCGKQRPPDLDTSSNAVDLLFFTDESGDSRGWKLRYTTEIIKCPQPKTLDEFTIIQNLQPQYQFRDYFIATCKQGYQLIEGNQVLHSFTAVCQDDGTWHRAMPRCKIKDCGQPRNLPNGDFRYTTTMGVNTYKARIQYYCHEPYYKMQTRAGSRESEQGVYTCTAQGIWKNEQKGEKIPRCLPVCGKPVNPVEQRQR
The experiment in a line: Anti-Cl esterase activity, Clr (AAME hydrolysis). It counts as biochemical. The following applies: hydrolysis of AAME; read-out: Anti-Cl activity, Clr (ID50). The procedure:
The anti-Cl esterase ([…]) activity was determined according to the method of Okamura et al. [K. Okamura, M. Muramatsu and B. Fujii, Biochem. Biophys.

Another test deals with T2, Trypsin (Bos taurus, UniProt P00760).
T2 sequence (P00760 24-246): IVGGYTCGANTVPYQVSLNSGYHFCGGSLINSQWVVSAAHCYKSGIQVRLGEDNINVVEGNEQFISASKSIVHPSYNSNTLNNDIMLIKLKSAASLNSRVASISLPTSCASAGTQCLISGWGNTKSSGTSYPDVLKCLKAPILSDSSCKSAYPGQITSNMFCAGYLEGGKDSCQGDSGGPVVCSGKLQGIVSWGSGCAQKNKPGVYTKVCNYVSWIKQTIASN
The experiment in a line: Anti-trypsin activity (inhibition of TAME hydrolysis). The following applies: read-out: ID50, trypsin. The test is classed as biochemical. The method, boiled down: (§1)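 Inhibition of enzymatic TAME (tosylarginine methyl ester) hydrolysis, per Muramatsu et al. Values are ID50, the molar concentration of compound inhibiting 50% of each enzyme's TAME-hydrolysing activity.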

A further test has as its system Kallikrein. The experiment in a line: Anti-kallikrein activity (inhibition of TAME hydrolysis). The test is classed as biochemical. The following applies: read-out: ID50, kallikrein. The procedure, abridged:
as §1

In the next test the target is T3, Cls (Homo sapiens, UniProt P09871).
T3 sequence (P09871 438-688 limits assumed): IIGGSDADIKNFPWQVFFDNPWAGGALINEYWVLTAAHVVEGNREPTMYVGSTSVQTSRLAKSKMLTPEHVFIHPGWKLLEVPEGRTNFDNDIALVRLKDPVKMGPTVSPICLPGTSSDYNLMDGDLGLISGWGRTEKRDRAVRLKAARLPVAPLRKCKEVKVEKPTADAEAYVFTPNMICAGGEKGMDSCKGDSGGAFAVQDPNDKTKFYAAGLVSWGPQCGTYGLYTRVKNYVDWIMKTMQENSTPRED
T3 sequence (P09871 16-437 limits assumed): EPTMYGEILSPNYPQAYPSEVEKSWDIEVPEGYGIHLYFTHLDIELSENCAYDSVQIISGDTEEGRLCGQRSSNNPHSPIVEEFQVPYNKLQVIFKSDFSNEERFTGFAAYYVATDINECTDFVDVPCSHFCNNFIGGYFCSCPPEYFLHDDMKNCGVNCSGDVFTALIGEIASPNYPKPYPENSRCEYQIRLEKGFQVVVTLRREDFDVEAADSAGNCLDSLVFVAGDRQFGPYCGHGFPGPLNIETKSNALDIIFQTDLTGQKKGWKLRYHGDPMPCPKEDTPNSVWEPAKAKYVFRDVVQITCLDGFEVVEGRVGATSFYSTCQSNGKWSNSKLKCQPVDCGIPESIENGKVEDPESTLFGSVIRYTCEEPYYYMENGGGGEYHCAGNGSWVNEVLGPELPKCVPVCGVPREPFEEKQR
The experiment in a line: Anti-Cl esterase activity, Cls (ATEE hydrolysis). It counts as biochemical. The following applies: hydrolysis of ATEE; read-out: Anti-Cl activity, Cls (50% inhibition). The procedure: The anti-Cl esterase (Clr, Cls) activity was determined according to the method of Okamura et al. [K. Okamura, M. Muramatsu and B. Fujii, Biochem. Biophys. […] The figures in Table 2 have the following meanings:
Cls: Molar concentration of the test compound which inhibits 50% of the ability of Cls to hydrolyse ATEE (acetyltyrosin ethyl ester).

A further test concerns complement. The experiment in a line: Inhibition of complement mediated hemolysis. The test is classed as cell-based.
The next test has as its target Plasmin (Homo sapiens, UniProt P00747). The experiment in a line: Anti-plasmin activity (inhibition of TAME hydrolysis). The test is classed as biochemical. The following applies: read-out: ID50, plasmin. The procedure, abridged:
as §1

pIC50: −log10 of the molar value. Bounds are passed on as bounds.

Chain of Plasmin (P00747 581-810 limits assumed, species assumed): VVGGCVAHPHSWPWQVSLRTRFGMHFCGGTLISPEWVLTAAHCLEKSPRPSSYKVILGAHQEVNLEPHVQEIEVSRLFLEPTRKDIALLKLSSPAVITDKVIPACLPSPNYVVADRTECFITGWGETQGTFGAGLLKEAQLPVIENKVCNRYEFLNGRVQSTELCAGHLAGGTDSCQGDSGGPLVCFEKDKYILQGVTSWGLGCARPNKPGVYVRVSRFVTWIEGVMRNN
Chain of Plasmin (P00747 97-580 limits assumed, species assumed): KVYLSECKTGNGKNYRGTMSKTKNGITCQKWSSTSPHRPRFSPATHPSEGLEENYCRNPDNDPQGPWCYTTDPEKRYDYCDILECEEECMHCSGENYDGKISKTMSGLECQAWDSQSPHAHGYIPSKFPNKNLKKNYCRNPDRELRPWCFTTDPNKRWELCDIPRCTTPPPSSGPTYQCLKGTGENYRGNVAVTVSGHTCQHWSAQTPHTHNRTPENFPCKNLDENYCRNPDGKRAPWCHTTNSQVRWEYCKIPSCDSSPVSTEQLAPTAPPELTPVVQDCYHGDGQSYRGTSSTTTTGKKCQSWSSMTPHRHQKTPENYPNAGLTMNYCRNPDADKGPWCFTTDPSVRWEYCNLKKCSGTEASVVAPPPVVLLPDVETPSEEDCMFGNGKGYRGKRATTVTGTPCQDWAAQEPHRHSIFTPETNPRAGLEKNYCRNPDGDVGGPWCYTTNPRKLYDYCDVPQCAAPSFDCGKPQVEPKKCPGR

In the case of `CC(C)(C)c1ccc(C(=O)Oc2ccc(C(=N)N)cc2[N+](=O)[O-])cc1` [Compound 38], the pIC50 on Thrombin was 6.70; on Clr it was 6.52; at Trypsin, 7.70; with Kallikrein it was 6.00; on Cls, 6.52; on Plasmin, 6.40. Moreover, the “Inhibition of complement mediated hemolysis (%)” value (shortened to “Inhibition … (%)”) in the test on complement (compound at 1 × 10^-4) was determined as 98.6%; in the test with complement (compound at 1 × 10^-5), 100%; in the test with complement (compound at 1 × 10^-6), 96.1%; with complement (compound at 1 × 10^-7) it was 37.2%.
`CC(C)(C)c1ccc(C(=O)Oc2ccc(C(=N)N)cc2C(=O)c2ccccc2)cc1` [Compound 39]: the pIC50 is 6.70 on Thrombin; 6.40 on Clr; 8.00 on Trypsin; 6.40 in the test with Kallikrein; 6.70 on Cls; 6.70 on Plasmin. Further, the “Inhibition … (%)” value in the test on complement (compound at 1 × 10^-4) stood at 0%; in the test on complement (compound at 1 × 10^-5), 95.4%; in the test with complement (compound at 1 × 10^-6), 96.8%; in the test with complement (compound at 1 × 10^-7) it was 52.1%.
Consider `COc1ccc(C(=O)Oc2ccc(C(=N)N)cc2C(=O)c2ccccc2)cc1` [Compound 42], for which the pIC50 on Thrombin is 7.15; on Clr, 6.00; at Trypsin it was 7.15; in the test with Kallikrein it was 6.52; on Cls it was 7.40; on Plasmin, 6.52. Also, the “Inhibition … (%)” value is given as 100% with complement (compound at 1 × 10^-4), 99.1% in the test on complement (compound at 1 × 10^-5), 70.0% with complement (compound at 1 × 10^-6) and 7.6% in the test with complement (compound at 1 × 10^-7).
On to `CCCCOc1ccc(C(=O)Oc2ccc(C(=N)N)cc2[N+](=O)[O-])cc1` [Compound 44], for which the pIC50 at Thrombin was 5.70; on Clr, 5.40; on Trypsin, 7.70; in the test with Kallikrein, 6.52; on Cls, 6.22; on Plasmin, 5.52. Further, the “Inhibition … (%)” value in the test on complement (compound at 1 × 10^-4) was 99.1%; in the test on complement (compound at 1 × 10^-5) it was 94.1%; with complement (compound at 1 × 10^-6), 29.0%; in the test with complement (compound at 1 × 10^-7), 29.2%.
Turning to `N=C(N)c1ccc(OC(=O)c2ccc(OCc3ccccc3)cc2)c(C(=O)c2ccccc2)c1` [Compound 45, 4-amidino-2-benzoylphenyl 4-benzyloxybenzoate], the pIC50 on Thrombin is 6.70; at Clr it was 6.05; on Trypsin, 7.70; with Kallikrein, 6.40; on Cls, 6.40; at Plasmin, 6.52. Moreover, the “Inhibition … (%)” value was found to be 0% in the test on complement (compound at 1 × 10^-4), 90.2% in the test on complement (compound at 1 × 10^-5), 6.0% in the test on complement (compound at 1 × 10^-6) and 0% in the test with complement (compound at 1 × 10^-7).
In the case of `N=C(N)c1ccc(OC(=O)c2ccc(O)cc2)c(C(=O)c2ccccc2)c1` [Compound 46, 4-amidino-2-benzoylphenyl 4-hydroxybenzoate], the pIC50 was 7.40 at Thrombin; 5.70 at Clr; 7.30 on Trypsin; 6.52 with Kallikrein; 7.05 on Cls; 6.22 at Plasmin. The “Inhibition … (%)” value turned out to be 100% with complement (compound at 1 × 10^-4), 98.0% with complement (compound at 1 × 10^-5), 67.6% with complement (compound at 1 × 10^-6) and 5.0% with complement (compound at 1 × 10^-7).
Turning to `N=C(N)c1cc(Br)c(OC(=O)c2ccc3c(c2)OCO3)c(Br)c1` [Compound 47, 4-amidino-2,6-dibromophenyl 3,4-methylenedioxybenzoate], the pIC50 on Thrombin is less than 5.00; on Clr it was less than 5.00; at Trypsin, less than 5.00; with Kallikrein, less than 5.00; on Cls, 7.52; on Plasmin, less than 5.00. In addition, the “Inhibition … (%)” value with complement (compound at 1 × 10^-4) came to 33.5%; in the test on complement (compound at 1 × 10^-5), 10.4%; in the test with complement (compound at 1 × 10^-6), 13.4%; in the test with complement (compound at 1 × 10^-7), 0%.
For the compound `N=C(N)c1ccc(OC(=O)C=Cc2ccc3c(c2)OCO3)c([N+](=O)[O-])c1` [Compound 48], the pIC50 at Thrombin was 6.40; at Clr, less than 5.00; on Trypsin it was 5.70; in the test with Kallikrein, 5.10; at Cls, 5.52; on Plasmin it was 6.70. Also, the “Inhibition … (%)” value is listed as 94.0% in the test with complement (compound at 1 × 10^-4), 94.8% with complement (compound at 1 × 10^-5), 75.3% with complement (compound at 1 × 10^-6) and 23.2% with complement (compound at 1 × 10^-7).
As to `COC(=O)c1ccc(C(=O)Oc2ccc(C(=N)N)cc2C(=O)c2ccccc2)cc1` [Compound 50], the pIC50 was 6.70 on Thrombin; 5.05 at Clr; 5.40 on Trypsin; less than 5.00 with Kallikrein; less than 5.00 at Cls; 6.30 on Plasmin. Besides, the “Inhibition … (%)” value with complement (compound at 1 × 10^-4) is given as 98.8%; in the test on complement (compound at 1 × 10^-5), 75.4%; with complement (compound at 1 × 10^-6), 6.9%; with complement (compound at 1 × 10^-7), 0%.
As to `COC(=O)c1cc(C(=N)N)ccc1OC(=O)c1ccc(C=O)cc1` [Compound 51], the pIC50 on Thrombin is 6.05; on Clr, less than 5.00; at Trypsin, 6.70; in the test on Kallikrein, less than 5.00; at Cls, 5.52; at Plasmin it was 6.52. Further, the “Inhibition … (%)” value in the test with complement (compound at 1 × 10^-4) was determined as 99.1%; in the test with complement (compound at 1 × 10^-5), 90.9%; in the test with complement (compound at 1 × 10^-6), 15.0%; with complement (compound at 1 × 10^-7) it was 0%.
With `N=C(N)c1ccc(OC(=O)c2ccc(C=O)cc2)c(C(=O)c2ccccc2)c1` [Compound 52], the pIC50 was 7.05 on Thrombin; 5.30 at Clr; 5.52 on Trypsin; less than 5.00 in the test on Kallikrein; 5.52 at Cls; 6.70 on Plasmin. Further, the “Inhibition … (%)” value with complement (compound at 1 × 10^-4) came out at 100%; in the test with complement (compound at 1 × 10^-5), 98.8%; in the test with complement (compound at 1 × 10^-6), 75.4%; with complement (compound at 1 × 10^-7), 12.8%.
